How the values were obtained:
[1] = tested on: diarrhea-predominant IBS subjects; details: human, in vivo
[2] = tested on: diarrhea-predominant IBS subjects; test: 3008 Study: 12-lead ECG abnormalities; format: in vivo, human; details: 3007 Study
Experimental: Resting 12-lead ECGs were performed at Day 1 (Visit 5 of the core protocol), Months 1, 6, and 12 (end of study or early termination visit). A centralized ECG service was used to evaluate all ECG tracings to supply consistent standardized ECG interpretation.
For by-visit assessments, visit windows were assigned to the post-Baseline assessments as follows (vital signs, laboratory tests, and ECGs):
All analyses and summaries for ECG assessments were based on the evaluation performed in the central ECG laboratory.
Summary statistics are presented for PR, QRS, QT, and QTc intervals (Bazett and Fridericia formulas) and heart rate at each visit and at Endpoint, as well as for change from Baseline results at each post-Baseline visit and at Endpoint. Bazett's and Fridericia's QTc intervals were calculated based on the following formulas: Bazett: QTc intervals=QT/√RR Fridericia: QTc intervals=QT/^3√RR
Markedly abnormal ECG parameter values collected after the first dose of study medication and within 30 days of the last dose of study medication were summarized overall. The following criteria were applied to identify markedly abnormal parameter values: • PR ≧0.210 sec; • QRS ≧0.120 sec; • QTc >0.440 sec;
The incidence of treatment-emergent ECG abnormalities is presented overall and by type of abnormality. A treatment-emergent ECG abnormality was an abnormality identified by the ECG core laboratory that was not present at baseline (e.g., prior to the entry into core Study 3006), and was observed on or after initiation of study medication and up to 30 days after discontinuation of study medication. The incidence of treatment-emergent ECG abnormalities is presented by time interval, as well as overall for the entire treatment period. The incidence of treatment-emergent abnormalities is also presented in more general categories (e.g., presenting incidence of treatment-emergent myocardial infarction overall as well as by location), depending on whether it mitigates the interpretation.

[3] = tested on: diarrhea-predominant IBS subjects; test: 3007 Study: laboratory marked abnormalities; format: in vivo, human; details: Study 3007
Experimental: Subjects were encouraged to fast at least six hours prior to laboratory samples being drawn. Laboratory safety tests were performed at Day 1 (Visit 5 of the core protocol), Months 1, 6, and 12 (end of study or at the early termination visit). Blood and urine were analyzed for:
• Prothrombin time (PT) (only before colonoscopy, as per clinical practice) • Hemoglobin • Hematocrit • Red blood cell count (RBC) • White blood cell count (WBC) • Differential blood count • Platelet count Blood Chemistry: • Glucose • Creatinine • Blood urea nitrogen (BUN) • Creatine kinase (CK) • Alkaline phosphatase (AP) • Total bilirubin • Alanine aminotransferase (ALT/SGPT) • Aspartate aminotransferase (AST/SGOT) • Gamma-glutamyltransferase (GGT) • Triglycerides • Cholesterol • Total protein • Uric acid • Sodium • Potassium • Calcium • Quantitative beta human chorionic gonadotrophin (β-HCG) (at every visit) • Thyroid stimulating hormone (visit 1 only) Urine: • Urobilinogen • Blood • Bilirubin • Ketones • Glucose • Protein • Nitrite • Leukocytes • pH • Dipstick pregnancy test (Day 1 only, if necessary) Stool: • Parasite, ova and stool culture (visit 1 only, if necessary) • Occult blood (analysis at each visit)
Laboratory data are presented in conventional units. Only one central laboratory was used for each laboratory parameter, thus no laboratory normalization was carried out.
For Study 3007, “baseline” was defined as Visit 1 of core Study 3006 for subjects randomized to the cilansetron treatment group in Study 3006 and as the last post-Baseline visit of Study 3006 (normally Visit 5) for subjects randomized to the placebo group in Study 3006.
Summary statistics are presented for all hematology and chemistry parameters at each analysis timepoint and at Endpoint, as well as for change from Baseline results at each post-Baseline analysis timepoint and at Endpoint. For laboratory assessments that were gender specific, summaries were presented separately for males and females. A listing of laboratory assessments for hematology, chemistry, and urinalysis parameters is presented. The following categories were used for the urinalysis parameter summaries: • pH: ≦5.0, >5.0 to ≦6.0, >6.0 to ≦7.0, and >7.0 • glucose, total protein, ketones, total bilirubin, nitrite, RBC (erythrocytes), and urobilinogen: negative and other (consisting of ‘trace’, ‘positive’, ‘+’, ‘++’, ‘+++’, or ‘++++’) • WBC (leukocytes): negative, positive
The overall incidence of post-Baseline marked abnormalities for hematology and chemistry parameters is also presented. Where applicable, the incidence of post-Baseline marked abnormalities is presented separately by whether the value was abnormally high or low. Any post-Baseline markedly abnormal laboratory measurement collected after the first dose of cilansetron and within 30 days of the last dose of cilansetron was included. However, assessments which were done more than 30 days after last subject visit and after database lock were not included in the analysis. Subjects were counted at most once for the post-Baseline marked abnormality for each laboratory parameter.

**Q.** What does the source list for `Cc1nccn1C[C@H]1CCc2c(c3cccc4c3n2CCC4)C1=O` [cilansetron, (R)-(−)-4,5,6,8,9,10-hexahydro-10-[(2-methyl-1H-imidazol-1-yl)methyl]-11H-pyrido-[3,2,1-jk]-carbazol-11-one]?
**A.** TEAE leading to permanent discontinuation: Oesophageal Reflux Aggravated ([1]; both): 1 (<1%) n (%); TEAE: Oesophageal Reflux Aggravated ([1]; both, 52 weeks): 3 (<1%) n (%); TEAE: Gastrooesophageal Reflux Disease ([1]; 52 weeks): 4 (<1%) n (%); ECG abnormality: early-repolarization-normal variant [2]: > 10%; ECG abnormality: sinus arrhythmia [2]: > 10%; ECG abnormality: sinus bradycardia [2]: > 10%; incidence of treatment-emergent markedly abnormal QTc(F) ([2]; 30 subjects): 2%; incidence of treatment-emergent markedly abnormal QTc(B) ([2]; 105 subjects): 8%; post-Baseline markedly high CK [3]: 3%; post-Baseline markedly high eosinophils [3]: 1%; post-Baseline markedly high triglycerides [3]: 3%; post-Baseline markedly high uric acid [3]: 1%; post-Baseline markedly high GGT ([3]; females): 5%; post-Baseline markedly high GGT ([3]; males): 7%; post-Baseline markedly high GGT ([3]; overall): 6%

Source: patent US20070093520A1, “Method of treatment of diarrhea-predominant irritable bowel syndrome in a subject” (priority 2005, published 2007)
